# Assay results published in patent publication US9382306B2, “Octapeptide compounds derived from somatostatin and the therapeutic use thereof” (IPSEN PHARMA S.A.S., priority 2008, dated 2016).
# Several values for one entry are separate records, joined by “and”; a condition that tells them apart may be missing. Equal values may be shown once. Bridge positions count the residues as written; N and C are the ends. Square brackets hold non-standard residues; d marks the D form. Peptide text beside a SMILES is read from it. ξ: configuration not given here. dPhe(3-Br) = N[C@H](Cc1cccc(Br)c1)C(=O)O; dPhe(4-F) = N[C@H](Cc1ccc(F)cc1)C(=O)O; d2Nal = N[C@H](Cc1ccc2ccccc2c1)C(=O)O; dPhe(2-F) = N[C@H](Cc1ccccc1F)C(=O)O; d(hPhe) = N[C@H](CCc1ccccc1)C(=O)O; Thr(3ξ) = CC(O)[C@H](N)C(=O)O
# Columns and labels:
# [1] = Self-assembly study: putting peptides in solution in water, macroscopic, ATR-FTIR, TEM and SAXS analysis; type: physicochemical; details: 3 to 15% by mass of peptide in water; form and diameter of the self-assembled structure, or soluble / insoluble
# Description: The procedure used comprises three stages: putting the peptides in solution and macroscopic analysis; spectroscopic and microscopic analyses of the structures formed and by small-angle X-ray scattering (SAXS) analyses.
# The first stage of the characterization of the derivatives is the production of a range of concentrations from 3 to 15% by mass of peptide in water. Gelling of the solution indicates the presence of self-assembled structures which can be nanotubes but can also be fibres or other self-organised structures.
# The object of this stage is to verify the presence of self-assembled structures, to characterize their self-assembly and to visualize them by microscopy.
# Infrared spectroscopy makes it possible to obtain information on the method of stacking the peptides in the self-assemblies. The amide band spectrum, reflecting the absorption spectra of the carbonyl functions of the peptide backbone, gives information on the type of hydrogen bond in which these groups are involved (H bonds leading to the formation of the […], a helix or also a loop or random conformation) and consequently on the secondary and tertiary structure of the peptides in solution and self-assembled. The attenuated total reflection technique (ATR-FTIR) uses a crystal on which the solid or liquid sample is deposited. The infrared light is guided through this crystal at an angle which allows it to be reflected several times inside the crystal, which increases the sensitivity of the technique. Due to the performance of this device, it is then possible perform measurements on relatively dilute solutions. The beam penetrates a few microns into the sample deposited on the crystal, which means that only the molecules/structures which are deposited on the surface of the crystal are analyzed. Moreover, this technique is non-destructive.
# The assembled structures are then visualized by transmission electron microscopy (TEM). This very powerful technique, allowing magnifications greater than 500,000 times, is one of the few techniques capable of visualizing structures on the nanometric scale. The sample is subjected to an electron beam. The visualization of the transmitted beam is produced either by a photoluminescent screen, or by a CCD camera. The sample in the microscope being under vacuum, it is samples dried after staining with uranyl salts in order to increase contrast which are observed.
# The peptide in solution is firstly deposited on a copper grid covered with a film of carbon. After deposition of the materiel, the excess liquid is eliminated. In the same way, the solution of colorant, in our case uranyl acetate, is deposited on the grid, the excess is eliminated and the grid is dried in the open air. It can then be introduced into the microscope.
# The samples, liquids or gels, are introduced into a capillary column and subjected to a monochromatic flow of X-rays. The intensity diffused is measured as a function of the scattering angle with respect to the incident angle.
# The diffusion patterns thus obtained must be the subject of a correlation with a close theoretical model of the structures present in the sample. In the case where the peptides have self-assembled in the form of hollow nanotubes, the modelling of the experimental data with the theoretical diffusion produced by infinitely long hollow columns makes it possible to determine with precision the diameter of the columns and to estimate their wall thickness (Valery et al. in Biophysical journal, 2004, 86(4), 2484-2501 and Proc. Natl. Acad. Sci., 2003, 100(18) 10258-10262). For polydisperse, nanotubular, fibrilar, micellar or lamellar self-assemblies, it is the correlation of the spectroscopic, microscopic and XR scattering data which makes it possible to estimate a size range for the objects observed.
# [2] = target: T1, somatostatin receptors sub-type 5 (Homo sapiens, UniProt P35346); assay: Affinity for somatostatin receptors: inhibition of [125I-Tyr11]SRIF-14 binding to membranes of transfected CHO-K1 cells; details: competitive inhibition of [125I-Tyr11]SRIF-14 binding, 37° C.
# T1 construct: expressed in transfected cells; membrane preparations
# Procedure: (§1) The affinity of the compounds of the invention for the somatostatin receptors is determined by measurement of the inhibition of the bond of [125I-Tyr11]SRIF-14 to membrane preparations of transfected CHO-K1 cells.
# (§2) The CHO-K1 cells expressing in a stable fashion each of the sub-types of somatostatin receptors are collected with 0.5 mM of EDTA and centrifuged at 500 g for 5 minutes at 4° C. The pellet is re-suspended in phosphate buffer (PBS) and centrifuged at 500 g for 5 minutes at 4° C. The pellet is re-suspended in Tris 50 mM buffer at pH 7.4 and centrifuged at 500 g for 5 minutes at 4° C. The cells are lyzed by sonication and centrifuged at 39,000 g for 10 minutes. The pellet is re-suspended in Tris 50 mM buffer at pH 7.4, an aliquot is removed for assaying the proteins and the remainder is centrifuged at 50,000 g for 10 minutes. The membranes obtained in this last pellet are stored at −80° C.
# (§3) Measurement of the competitive inhibition of the bond of [125I-Tyr11]SRIF-14 (Perkin Elmer) on each of the sub-types of somatostatin receptors is carried out in duplicate in 96-well polypropylene plates. The cell membranes (5 to 20 µg of proteins/well) are incubated with [125I-Tyr11]SRIF-14 (0.05 to 0.1 nM) for 50 to 90 minutes at 37° C. (conditions dependent on the sub-type of receptor) in a HEPES buffer medium 50 mM pH 7.4, comprising 0.2% bovine serum albumin (BSA), MgCl2 5 mM, Trasylol 200 KIU/mL, Bacitracin 0.02 mg/mL, phenylmethylsulphonyl fluoride 0.02 mg/mL.
# (§4) The bound [125I-Tyr11]SRIF-14 is separated from the free [125I-Tyr11]SRIF-14 by filtration through GF/C glass fibre plates (Unifilter, Perkin Elmer) pre-impregnated with 0.1% polyethylenimine (P.E.I.), using a Filtermate 96 (Perkin Elmer). The filters are washed with Tris-HCl buffer 50 mM, pH 7.4 at 4° C. and the radioactivity present is determined using a counter (TopCount, Perkin Elmer).
# (§5) The data are analyzed by computer-assisted non-linear regression using XLfit 4.2 (IDBS) software.
# [3] = target: T2, somatostatin receptors sub-type 2 (Homo sapiens, UniProt P30874); assay: as above; details: competitive inhibition of [125I-Tyr11]SRIF-14 binding, 37° C.
# T2 construct: expressed in transfected cells; membrane preparations
# Procedure: as §1, §2, §3, §4, §5
# [4] = Solubility study before preparative HPLC; type: physicochemical; details: water-acetonitrile mixture 58:42; water-acetonitrile solution 58:42
# Description: The peptide must be dissolved in a water-acetonitrile mixture in order be injected into the preparative HPLC. A solubility study is first carried out on a small quantity. It allows the optimum percentage of acetonitrile and the maximum quantity of peptide to be established. The lowest possible percentage of acetonitrile with a very high concentration of peptide and a resultant clear solution constitute ideal conditions. By way of example, the solubility of the 4-para-fluorophenylalanine derivative (Example 13 hereafter) was established at 49 g l^−1 in a water-acetonitrile solution 58:42.
# T2 sequence (P30874 whole entry): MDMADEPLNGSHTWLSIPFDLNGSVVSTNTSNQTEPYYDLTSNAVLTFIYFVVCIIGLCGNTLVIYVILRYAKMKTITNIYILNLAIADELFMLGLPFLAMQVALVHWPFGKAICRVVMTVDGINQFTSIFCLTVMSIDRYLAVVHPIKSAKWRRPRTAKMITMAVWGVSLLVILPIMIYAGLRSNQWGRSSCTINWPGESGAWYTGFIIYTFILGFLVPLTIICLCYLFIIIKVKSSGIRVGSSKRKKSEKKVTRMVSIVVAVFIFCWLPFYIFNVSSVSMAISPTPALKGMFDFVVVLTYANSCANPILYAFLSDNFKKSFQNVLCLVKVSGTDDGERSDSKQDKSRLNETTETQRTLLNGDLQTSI
# T1 sequence (P35346 whole entry): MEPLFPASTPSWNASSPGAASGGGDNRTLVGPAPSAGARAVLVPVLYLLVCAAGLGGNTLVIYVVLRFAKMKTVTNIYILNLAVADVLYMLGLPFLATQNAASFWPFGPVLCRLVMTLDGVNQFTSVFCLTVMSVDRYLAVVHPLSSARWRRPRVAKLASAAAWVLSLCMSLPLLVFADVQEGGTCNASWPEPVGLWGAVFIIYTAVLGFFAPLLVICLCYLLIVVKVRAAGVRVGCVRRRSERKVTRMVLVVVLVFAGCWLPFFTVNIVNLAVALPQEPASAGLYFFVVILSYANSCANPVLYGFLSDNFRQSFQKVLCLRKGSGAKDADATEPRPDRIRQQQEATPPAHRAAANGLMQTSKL
Assembly [1],Ki [2] [nM],Ki [3] [nM],solubility [4] [mg/mL],Compound
fibres,≤ 100,≤ 5,–,"CC(C)[C@@H]1NC(=O)[C@H](CCCCN)NC(=O)[C@@H](CC2CCCCC2)NC(=O)[C@H](Cc2ccc(O)cc2)NC(=O)[C@@H](NC(=O)[C@H](N)Cc2ccc3ccccc3c2)CSSC[C@@H](C(=O)N[C@H](C(N)=O)[C@@H](C)O)NC1=O [Example 24, H-D-2-Nal^1-cyclo(Cys^2-Tyr^3-cyclohexyl-D-Ala^4-Lys^5-Val^6-Cys^7)-Thr^8-NH2.2 CH3COOH]"
18.4-18.8 nm monodisperse,≤ 100,≤ 5,–,"CC(C)[C@@H]1NC(=O)[C@H](CCCCN)NC(=O)[C@@H](Cc2cccc(Br)c2)NC(=O)[C@H](Cc2ccc(O)cc2)NC(=O)[C@@H](NC(=O)[C@H](N)Cc2ccc3ccccc3c2)CSSC[C@@H](C(=O)N[C@H](C(N)=O)C(C)O)NC1=O (stereo partly drawn) [Example 18, H-D-2-Nal^1-cyclo(Cys^2-Tyr^3-m-Br-D-Phe^4-Lys^5-Val^6-Cys^7)-Thr^8-NH2.2 CH3COOH] (H-[d2Nal]CY[dPhe(3-Br)]KVC[Thr(3ξ)]-NH2; disulfide 2-7)"
10 nm monodisperse nanotube,≤ 1000,≤ 50,–,"CC(C)[C@@H]1NC(=O)[C@H](CCCCN)NC(=O)[C@@H](Cc2ccc(/N=N/c3ccccc3)cc2)NC(=O)[C@H](Cc2ccc(O)cc2)NC(=O)[C@@H](NC(=O)[C@H](N)Cc2ccc3ccccc3c2)CSSC[C@@H](C(=O)N[C@H](C(N)=O)[C@@H](C)O)NC1=O [Example 25, H-D-2-Nal^1-cyclo(Cys^2-Tyr^3-p-phenylazo-D-Phe^4-Lys^5-Val^6-Cys^7)-Thr^8-NH2.2 CH3COOH]"
soluble,≤ 1000,≤ 50,–,"CC(C)[C@@H]1NC(=O)[C@H](CCCCN)NC(=O)[C@@H](CCc2ccccc2)NC(=O)[C@H](Cc2ccc(O)cc2)NC(=O)[C@@H](NC(=O)[C@H](N)Cc2ccc3ccccc3c2)CSSC[C@@H](C(=O)N[C@H](C(N)=O)C(C)O)NC1=O (stereo partly drawn) [Example 11, H-D-2-Nal^1-cyclo(Cys^2-Tyr^3-D-Homophe^4-Lys^5-Val^6Cys^7)-Thr^8-NH2.2 CH3COOH] (H-[d2Nal]CY[d(hPhe)]KVC[Thr(3ξ)]-NH2; disulfide 2-7)"
insoluble,≤ 100,≤ 50,–,"CC(C)[C@@H]1NC(=O)[C@H](CCCCN)NC(=O)[C@@H](Cc2c3ccccc3cc3ccccc23)NC(=O)[C@H](Cc2ccc(O)cc2)NC(=O)[C@@H](NC(=O)[C@H](N)Cc2ccc3ccccc3c2)CSSC[C@@H](C(=O)N[C@H](C(N)=O)C(C)O)NC1=O (stereo partly drawn) [Example 8, H-D-2-Nal^1-cyclo(Cys^2Tyr^3-β-(9-anthryl)-D-Ala^4-Lys^5-Val^6Cys^7)-Thr^8-NH2.2 CH3COOH]"

Compound,Assembly [1],Ki [2] [nM],Ki [3] [nM],solubility [4] [mg/mL]
"CC(C)[C@@H]1NC(=O)[C@H](CCCCN)NC(=O)[C@@H](Cc2ccc(F)cc2)NC(=O)[C@H](Cc2ccc(O)cc2)NC(=O)[C@@H](NC(=O)[C@H](N)Cc2ccc3ccccc3c2)CSSC[C@@H](C(=O)N[C@H](C(N)=O)C(C)O)NC1=O (stereo partly drawn) [Example 13, H-D-2-Nal^1-cyclo(Cys^2-Tyr^3-p-F-D-Phe^4-Lys^5-Val^6-Cys^7)-Thr^8-NH2.2 CH3COOH] (H-[d2Nal]CY[dPhe(4-F)]KVC[Thr(3ξ)]-NH2; disulfide 2-7)",monodisperse peptide nanotubes and 17 nm monodisperse nanotube,≤ 1000,≤ 5,49
"CC(C)[C@@H]1NC(=O)[C@H](CCCCN)NC(=O)[C@@H](Cc2csc3ccccc23)NC(=O)[C@H](Cc2ccc(O)cc2)NC(=O)[C@@H](NC(=O)[C@H](N)Cc2ccc3ccccc3c2)CSSC[C@@H](C(=O)N[C@H](C(N)=O)C(C)O)NC1=O (stereo partly drawn) [Example 1, H-D-2-Nal^1-cyclo(Cys^2-Tyr^3-β-(3-benzothienyl)-D-Ala^4-Lys^5-Val^6-Cys^7)-Thr^8-NH2.2 CH3COOH]",monodisperse peptide nanotubes and 20 nm monodisperse nanotube,≤ 100,≤ 5,–
"CC(C)[C@@H]1NC(=O)[C@H](CCCCN)NC(=O)[C@@H](Cc2ccccc2F)NC(=O)[C@H](Cc2ccc(O)cc2)NC(=O)[C@@H](NC(=O)[C@H](N)Cc2ccc3ccccc3c2)CSSC[C@@H](C(=O)N[C@H](C(N)=O)C(C)O)NC1=O (stereo partly drawn) [Example 16, H-D-2-Nal^1-cyclo(Cys^2-Tyr^3-o-F-D-Phe^4-Lys^5-Val^6-Cys^7)-Thr^8-NH2.2 CH3COOH] (H-[d2Nal]CY[dPhe(2-F)]KVC[Thr(3ξ)]-NH2; disulfide 2-7)",monodisperse peptide nanotubes and 17 nm monodisperse nanotube,≤ 1000,≤ 5,–
"CC(C)[C@@H]1NC(=O)[C@H](CCCCN)NC(=O)[C@@H](Cc2cccs2)NC(=O)[C@H](Cc2ccc(O)cc2)NC(=O)[C@@H](NC(=O)[C@H](N)Cc2ccc3ccccc3c2)CSSC[C@@H](C(=O)N[C@H](C(N)=O)C(C)O)NC1=O (stereo partly drawn) [Example 2, H-D-2-Nal^1-cyclo(Cys^2-Tyr^3-β-(2-thienyl)-D-Ala^4-Lys^5-Val^6-Cys^7)-Thr^8-NH2.2 CH3COOH]",monodisperse peptide nanotubes and 12 nm monodisperse nanotube,≤ 1000,≤ 50,–
